Experimental findings from patent publication US11033537B2, “LPT-723 and immune checkpoint inhibitor combinations and methods of treatment” (BIOMED VALLEY DISCOVERIES, INC., priority 2015, dated 2021) are described below.

One data set has as its system MBT-2 cells. The data set can be described thus: In vitro cell viability assay, MBT-2. The data set is classed as cell-based, murine. Conditions: Mus musculus.
In data set [1] the test system is HCT-116 human colon xenografts. The data set can be described thus: HCT-116 human colorectal cancer xenograft model. It is filed as in vivo. Conditions: LPT-723 30 mpk p.o. twice a day, BALB/c nude mice. The protocol:
BALB/c nude mice bearing HCT-116 human colon xenografts were treated with control (vehicle) and LPT-723. Treatment was initiated when tumor volume reached approximately 80-120 mm^3. LPT-723 was dosed p.o. twice a day at 30 mpk.
In general terms: In xenograft studies the graft and the host belong to different species.

The next data set has as its system HCT116 cells. The data set can be described thus: In vitro activity on HCT116 cells in culture. The data set is classed as cell-based, human. The note with it: up to 30 μM.
Data set [2] relates to Salmonella typhimurium TA98 and TA100. Nature of the data set: 2-Strain Ames test. The note with it: 1.5 to 5000 μg per plate, with and without rat liver S9. An excerpt: Test System: The two tester strains used were the Salmonella typhimurium histidine auxotrophs TA98 and TA100 as described by Ames et al. (1975). Tester strain TA98 is reverted from auxotrophy to prototrophy by frameshift mutagens while tester strain TA100 is reverted by mutagens that cause both frameshift and base pair substitution mutations.
Experimental Design: The test system was exposed to LPT-723 via the plate incorporation methodology originally described by McCann et al. (1975) and updated by Maron and Ames (1983). Briefly, LPT-723 was tested at eight dose levels along with appropriate vehicle control and positive controls. Overnight cultures of tester strains TA98 and TA100 were plated on selective minimal agar in the presence and absence of Aroclor-induced rat liver S9. […]
Plating and Scoring Procedures: LPT-723 dilutions were prepared immediately before use and delivered to the test system at room temperature under yellow light. […] Plates were counted immediately following the incubation period or were stored at 2-8° C. until colony counting could be conducted.
The condition of the bacterial background lawn was evaluated for evidence of LPT-723 toxicity using a dissecting microscope. Precipitate was evaluated by visual examination without magnification. […] Plates with sufficient LPT-723 precipitate to interfere with automated colony counting were counted manually. […]
Background: The Ames test detects mutagens through reverse mutation in bacteria.

A short description of data set [3]: Monkey 7-day dose range finding study. It is filed as in vivo. The protocol:
Preparation of the Control/Vehicle Item: The control/vehicle item (2% TPGS/1.5% HPMCAS-HF/1.5% PVP-VA with 50 mM sodium citrate buffer pH 5.0) was prepared 3 days prior to the start of dosing and was stored at room temperature, away from direct light for the duration of the study. The instructions below were for the preparation of a final volume of 2.5 L. These instructions were scaled as needed.
500 mL of 10% Vitamin E-TPGS were added to an appropriate sized container and stirring was initiated. 750 mL of 5% HPMCAS-HF/5% PVP-VA were added to the same container and stirred at medium speed for 30 minutes to ensure proper mixing. 1 L of deionized water was added and stirring was continued for 30 minutes. 125 mL of 1M sodium citrate buffer and 125 mL of deionized water were added with stirring. The final vehicle was stirred at medium speed for 1 hour. The vehicle was a hazy solution and was stored at room temperature, away from direct light for the duration of the study.
Experimental Design: The test and control/vehicle items were administered once daily for 7 consecutive days by oral gavage as described in Table 6 below. The dose volume administered to each animal was 5 mL/kg. One day after the end of dosing, the Main animals were euthanized and subjected to a necropsy examination on Day 8.

Broadly, the IC50 is the midpoint of a concentration-inhibition curve. Compound `Cc1cc(-c2cncc(C(O)C(F)(F)F)c2)nc2c1C(=O)N(c1cnn(CC(F)F)c1)C2(C)C` (stereo not shown) [LPT-723] returned an IC50 in the data set with MBT-2 cells of 45.5 µM. Moreover, the tumor growth inhibition in data set [1] is reported as 45%. In addition, in the data set on HCT116 cells, the “activity in vitro on HCT116 cells in culture” value is “no activity”. Further, the “toxicity (Ames plate incorporation)” value in data set [2] is recorded as “No toxicity was observed”. Further, the “highest dose versus maximum tolerated dose” value in data set [3] (monkey, 40 mg/kg/day oral, 7 days) was “exceeded the maximum tolerated dose (MTD)”. For the same compound, the lymphocyte counts result in data set [3] (monkey, 15, 25, 40 mg/kg/day, 7 days) is recorded as “dose-related decrease in lymphocyte counts”. In addition, the expected therapeutic index entry in data set [3] (monkey, with lower doses) is listed as “approximately 5”.
